{"source": "patent US20080293038A1", "about": "“Method for Determining Resistance of Hiv to Nucleoside Reverse Transcriptase Inhibitor Treatment” (priority 2005, published 2008)", "tested_on": "HIV-1 isolates from patient plasma samples (recombinant virus with patient PR-RT segment)", "protocol": "Phenotypic drug susceptibility is measured as the concentration of drug required to inhibit virus replication by 50% (IC50). As used herein, a “fold change” or “FC” is the ratio of a viral variant IC50 divided by the IC50 of a reference HIV.\nThe clinical cutoff has been identified as a 3.5-fold change (“FC”) for the PHENOSENSE™ phenotypic HIV assay for FTC.\nA set of reverse transcriptase mutations for FTC was generated utilizing the HIPAA-compliant database of over 48,000 linked phenotype and genotype results for patient's samples maintained by ViroLogic, Inc. (South San Francisco, Calif.). Phenotypes and genotypes were determined in the ViroLogic clinical laboratory. […] In this subset excluding the wild-type samples, a total of 13,576 samples had IC50 fold change (FC) data available for FTC.\nThe drug susceptibility phenotypes of the HIV-1 isolates from patient plasma samples was determined by the PHENOSENSE™ phenotype HIV assay. This assay was performed by amplifying the PR-RT segment of the pol gene from patient plasma and inserting it into a genomic HIV-1 vector. The vector contained a luciferase reporter gene to monitor recombinant virus infection in cell culture. Results were expressed as the FC in the IC50 for the patient-derived virus compared to that for a reference control virus, NL4-3. Drug dilutions were arranged to maximize curve-fitting accuracy for the range of wildtype virus susceptibilities over clinically relevant ranges of increased and decreased susceptibilities. Microtiter plates were incubated in customized incubators in which the temperature, CO2 level, and humidity were controlled to minimize variation in cell growth and medium composition changes throughout the plate.\nThe five rules were tested separately and with the condition that none of the other rules were verified as true, except for rule 2. […] In this exercise, because of large number of samples in each category, mixtures (if present at accessory positions) were considered as mutant. In rule 2, because of the low number of samples with T69 insertion without NAMs, the condition was defined to select samples with T69 insertion and with no mutation Q151M, K65R, M184I, M184V or M184T.", "note": "Read-outs that look alike come from different tables or passages of the source.", "data": [{"compound": "Nc1nc(=O)n([C@@H]2CS[C@H](CO)O2)cc1F", "note": "[FTC, emtricitabine]", "values": [{"measurement": "samples classified as phenotypically resistant", "setting": "dataset of 13,576 patient samples (wild-type excluded) with FTC FC data, 8,589 samples resistant", "value": 63.2, "unit": "%"}, {"measurement": "PR % (samples phenotypically resistant to FTC)", "setting": "rule 1: samples with RT mutation Q151M only, PR = FC at or above clinical cutoff 3.5 vs NL4-3", "value": 53.8, "unit": "%"}, {"measurement": "PR % (samples phenotypically resistant to FTC)", "setting": "rule 2: samples with T69 insertion (possible NAMs), no Q151M, K65R, M184I/V/T, cutoff FC 3.5", "value": 89.4, "unit": "%"}, {"measurement": "PR % (samples phenotypically resistant to FTC)", "setting": "rule 3: samples with RT mutation K65R only, cutoff FC 3.5", "value": 95.2, "unit": "%"}, {"measurement": "PR % (samples phenotypically resistant to FTC)", "setting": "rule 4: samples with M184I, V or T only, cutoff FC 3.5", "value": 100, "unit": "%"}, {"measurement": "PR % (samples phenotypically resistant to FTC)", "setting": "rule 5: samples with 4 or more NAMs (M41L, E44A/D, D67N, K70R, V118I, L210W, T215F/Y, K219E/H/N/Q/R) only, cutoff FC 3.5", "value": 87.1, "unit": "%"}, {"measurement": "PR % (samples phenotypically resistant to FTC)", "setting": "totals: all 2794 samples meeting only one of the five rules, cutoff FC 3.5", "value": 94.9, "unit": "%"}]}]}
